Measurements reported in patent US10610520B2, “Heterocyclic compound” (Takeda Pharmaceutical Company Limited, priority 2016, dated 2020).

molecular target: T1, His-hMAGL (recombinant polyhistidine tagged human MAGL protein) (Homo sapiens, UniProt Q99685); assay: Measurement of MAGL inhibitory activity (arachidonic acid production from 2-arachidonylglycerol, RapidFire-mass spectrometry); type: biochemical; details: MAGL inhibitory rate, test compound 10 μM, 60 min preincubation, 2-arachidonylglycerol substrate
T1 construct: made in house; host or cells: E. coli BL21(DE3)
T1 sequence (Q99685 1-303): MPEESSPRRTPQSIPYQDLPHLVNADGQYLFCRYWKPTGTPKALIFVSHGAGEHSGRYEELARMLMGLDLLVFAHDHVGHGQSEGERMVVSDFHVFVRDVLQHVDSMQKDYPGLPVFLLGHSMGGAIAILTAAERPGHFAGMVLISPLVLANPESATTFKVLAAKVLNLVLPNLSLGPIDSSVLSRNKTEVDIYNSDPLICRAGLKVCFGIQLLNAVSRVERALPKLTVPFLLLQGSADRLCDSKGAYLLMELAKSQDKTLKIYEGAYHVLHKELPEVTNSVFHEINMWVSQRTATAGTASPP
Method in brief: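 Arachidonic acid formed was quantified by online solid-phase extraction and triple-quadrupole MS in negative SRM mode against a d8 internal standard. Reaction: recombinant His-hMAGL (7.5 ng/mL, pH 7.5 Tris buffer with Triton X-100 and BSA) plus 2-AG (5 μL of 150 μM stock) for 10 min at room temperature, quenched with 2% formic acid. Percent inhibition corrected for enzyme-free background.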

Row | Structure (SMILES) | inhibition at 10 µM
1 | O=C1CCC2(CN(C(=O)N3CCC(Cc4ccc(Cl)c(Cl)c4)CC3)C2)N1 [Example 103, 2-((4-(3,4-dichlorobenzyl)piperidin-1-yl)carbonyl)-2,5-diazaspiro[3.4]octan-6-one] | 103%
2 | O=C1CCC2(CN(C(=O)c3sc4cc(OC(F)(F)F)ccc4c3C(F)(F)F)C2)N1 [Example 263, 2-((6-(trifluoromethoxy)-3-(trifluoromethyl)-1-benzothiophen-2-yl)carbonyl)-2,5-diazaspiro[3.4]octan-6-one] | 98%
3 | O=C1NC2(CO1)CN(C(=O)c1sc3cc(OC(F)(F)F)ccc3c1C(F)F)C2 [Example 264, 2-((3-(difluoromethyl)-6-(trifluoromethoxy)-1-benzothiophen-2-yl)carbonyl)-7-oxa-2,5-diazaspiro[3.4]octan-6-one] | 100%
4 | O=C1CCC2(CN(C(=O)c3ccc(-c4ccccc4)cc3F)C2)N1 [Example 31, 2-((3-fluorobiphenyl-4-yl)carbonyl)-2,5-diazaspiro[3.4]octan-6-one] | 84%
5 | O=C1CCC2(CN(C(=O)c3ccc(-c4cc(C5CC5)ccc4F)cc3)C2)N1 [Example 53, 2-((5′-cyclopropyl-2′-fluorobiphenyl-4-yl)carbonyl)-2,5-diazaspiro[3.4]octan-6-one] | 99%
6 | O=C1CCC2(CN(C(=O)c3ccc(-c4ccc(Cl)cc4)cc3)C2)N1 [Example 87, 2-((4′-chlorobiphenyl-4-yl)carbonyl)-2,5-diazaspiro[3.4]octan-6-one] | 98%
7 | Cc1c(C(=O)N2CC3(COC(=O)N3)C2)sc2cc(-c3c(F)cccc3F)ccc12 [Example 351, 2-((6-(2,6-difluorophenyl)-3-methyl-1-benzothiophen-2-yl)carbonyl)-7-oxa-2,5-diazaspiro[3.4]octan-6-one] | 100%
8 | O=C1NC2(CCO1)CN(C(=O)c1sc3cccc(OC(F)(F)F)c3c1Cl)C2 [Example 283, 2-((3-chloro-4-(trilfuoromethoxy)-1-benzothiophen-2-yl)carbonyl)-7-oxa-2,5-diazaspiro[3.5]nonan-6-one] | 99%
9 | O=C1CCC2(CN(C(=O)c3ccc(-c4ccc(C5(C(F)(F)F)CC5)cc4)cc3)C2)N1 [Example 63, 2-((4′-(1-(trifluoromethyl)cyclopropyl)biphenyl-4-yl)carbonyl)-2,5-diazaspiro[3.4]octan-6-one] | 99%
10 | O=C1NC2(CO1)CN(C(=O)c1sc3cc(C(F)(F)F)cc(OC(F)F)c3c1Cl)C2 [Example 305, 2-((3-chloro-4-(difluoromethoxy)-6-(trifluoromethyl)-1-benzothiophen-2-yl)carbonyl)-7-oxa-2,5-diazaspiro[3.4]octan-6-one] | 100%
11 | CC1(c2cccc(-c3cc(Cl)c(C(=O)N4CC5(COC(=O)N5)C4)s3)c2)CC1 [Example 281, 2-((3-chloro-5-(3-(1-methylcyclopropyl)phenyl)-2-thienyl)carbonyl)-7-oxa-2,5-diazaspiro[3.4]octan-6-one] | 100%
12 | O=C1CCC2(CN(C(=O)c3sc4cc(-c5ccc(F)c(Cl)c5)ccc4c3Cl)C2)N1 [Example 226, 2-((3-chloro-6-(3-chloro-4-fluorophenyl)-1-benzothiophen-2-yl)carbonyl)-2,5-diazaspiro[3.4]octan-6-one] | 99%
13 | O=C1CCC2(CN(C(=O)c3ccc(-c4cccc(Cl)c4)cc3)C2)N1 [Example 86, 2-((3′-chlorobiphenyl-4-yl)carbonyl)-2,5-diazaspiro[3.4]octan-6-one] | 97%

The remaining lines, values ahead:

Row | inhibition at 10 µM | Structure (SMILES)
14 | 101% | O=C1NC2(CO1)CN(C(=O)c1sc3cc(C(F)(F)F)ccc3c1Cl)C2 [Example 241, 2-((3-chloro-6-(trifluoromethyl)-1-benzothiophen-2-yl)carbonyl)-7-oxa-2,5-diazaspiro[3.4]octan-6-one]
15 | 100% | O=C1NC2(CO1)CN(C(=O)c1sc3cc(Cl)ccc3c1Cl)C2 [Example 364, 2-((3,6-dichloro-1-benzothiophen-2-yl)carbonyl)-7-oxa-2,5-diazaspiro[3.4]octan-6-one]
16 | 101% | O=C1NC2(CO1)CN(C(=O)c1sc3cccc(OC(F)(F)F)c3c1Cl)C2 [Example 266, 2-((3-chloro-4-(trifluoromethoxy)-1-benzothiophen-2-yl)carbonyl)-7-oxa-2,5-diazaspiro[3.4]octan-6-one]
17 | 94% | O=C1CCC2(CN(C(=O)c3ccc(-c4ccc5c(c4)CCO5)cc3)C2)N1 [Example 95, 2-(4-(2,3-dihydro-1-benzofuran-5-yl)benzoyl)-2,5-diazaspiro[3.4]octan-6-one]
18 | 99% | Cc1ccc(-c2ccc3c(Cl)c(C(=O)N4CC5(CCC(=O)N5)C4)sc3c2)cn1 [Example 227, 2-((3-chloro-6-(6-methylpyridin-3-yl)-1-benzothiophen-2-yl)carbonyl)-2,5-diazaspiro[3.4]octan-6-one]
19 | 101% | O=C1CCC2(CN(C(=O)N3CCC(Cc4ccccc4F)CC3)C2)N1 [Example 96, 2-((4-(2-fluorobenzyl)piperidin-1-yl)carbonyl)-2,5-diazaspiro[3.4]octan-6-one]
20 | 97% | O=C1CCC2(CN(C(=O)c3ccc(-c4ccc(OC(F)(F)F)cc4F)cc3)C2)N1 [Example 59, 2-((2′-fluoro-4′-(trifluoromethoxy)biphenyl-4-yl)carbonyl)-2,5-diazaspiro[3.4]octan-6-one]
21 | 100% | Cc1c(OC(F)(F)F)ccc2c(Cl)c(C(=O)N3CCC4(COC(=O)N4)C3)sc12 (stereo not shown) [Example 329, 7-((3-chloro-7-methyl-6-(trifluoromethoxy)-1-benzothiophen-2-yl)carbonyl)-3-oxa-1,7-diazaspiro[4.4]nonan-2-one]
22 | 99% | CC(C)c1cccc(-c2ccc3c(Cl)c(C(=O)N4CC5(CCC(=O)N5)C4)sc3c2)c1 [Example 188, 2-((3-chloro-6-(3-isopropylphenyl)-1-benzothiophen-2-yl)carbonyl)-2,5-diazaspiro[3.4]octan-6-one]
23 | 99% | O=C1CCC2(CN(C(=O)c3ccc(-c4ccc(Cl)c(C(F)(F)F)c4)cc3)C2)N1 [Example 52, 2-((4′-chloro-3′-(trifluoromethyl)biphenyl-4-yl)carbonyl)-2,5-diazaspiro[3.4]octan-6-one]
24 | 99% | O=C1CCC2(CN(C(=O)c3ccc(COc4ccccc4C(F)(F)F)cc3)C2)N1 [Example 5, 2-(4-((2-(trifluoromethyl)phenoxy)methyl)benzoyl)-2,5-diazaspiro[3.4]octan-6-one]
25 | 100% | O=C1CCC2(CN(C(=O)N3CC(COc4ccc(C(F)(F)F)cc4F)C3)C2)N1 [Example 8, 2-((3-((2-fluoro-4-(trifluoromethyl)phenoxy)methyl)azetidin-1-yl)carbonyl)-2,5-diazaspiro[3.4]octan-6-one]
26 | 81% | O=C1CCC2(CN(C(=O)c3ccc(-c4ccccc4)cc3Cl)C2)N1 [Example 117, 2-((3-chlorobiphenyl-4-yl)carbonyl)-2,5-diazaspiro[3.4]octan-6-one]
27 | 96% | O=C1CCC2(CN(C(=O)c3ccc(-c4ccc(OC(F)(F)F)cc4)cc3)C2)N1 [Example 58, 2-((4′-(trifluoromethoxy)biphenyl-4-yl)carbonyl)-2,5-diazaspiro[3.4]octan-6-one]

same assay, conditions: MAGL inhibitory rate, test compound 10 μM, 60 min preincubation, 2-arachidonylglycerol substrate; 10 µM

Row | % inhibition (10 μM) | Structure (SMILES)
28 | 99% | O=C1NC2(CCN(C(=O)c3sc4cc(Cl)cc(Cl)c4c3Cl)C2)CO1 (stereo not shown) [Example 327, 7-((3,4,6-trichloro-1-benzothiophen-2-yl)carbonyl)-3-oxa-1,7-diazaspiro[4.4]nonan-2-one]
